Drawing on ChEMBL document CHEMBL6153025, “Multidrug-resistant bacteria quorum-sensing inhibitors: A particular focus on Pseudomonasaeruginosa” (Eur J Med Chem, 2025), this text covers IC50 and Activity for three compounds.

Test [1] can be described thus: Inhibition of quorum sensing system in Pseudomonas aeruginosa PAO1-pqsA assessed as reduction in fluorescence intensity measured for 12 hrs by GFP reporter strain assay.
For test [2], the system named is Pseudomonas aeruginosa. The test is described as follows: Antivirulence activity against Pseudomonas aeruginosa PAO1 assessed as inhibition of pyocyanin production. Format: functional, organism-based.
The test system of test [3] is Pseudomonas aeruginosa. The test can be described thus: Downregulation of rhlR mRNA expression in Pseudomonas aeruginosa PAO1 incubated for 4 hrs by RT-qPCR analysis. Format: functional, organism-based. Particulars: PAO1, 4 h. (Real-time PCR tracks product formation cycle by cycle.)
Test [4] relates to Pseudomonas aeruginosa. The test is described as follows: Downregulation of lasR mRNA expression in Pseudomonas aeruginosa PAO1 incubated for 4 hrs by RT-qPCR analysis. Format: functional, organism-based. Particulars: PAO1, 4 h.
For test [5], the system named is Pseudomonas aeruginosa. The test is described as follows: Antibiofilm activity against Pseudomonas aeruginosa assessed as reduction in biofilm formation incubated for 24 hrs relative to control. Format: functional. The arrangement: scale not given: the % may be the effect or the level left.
Test [6] concerns Pseudomonas aeruginosa. The test is described as follows: Downregulation of lasA mRNA expression in Pseudomonas aeruginosa PAO1 incubated for 4 hrs by RT-qPCR analysis. Format: functional, organism-based. Particulars: PAO1, 4 h.
The test system of test [7] is Pseudomonas aeruginosa. The test is described as follows: Downregulation of pqsR mRNA expression in Pseudomonas aeruginosa PAO1 incubated for 4 hrs by RT-qPCR analysis. Format: functional, organism-based. Particulars: PAO1, 4 h.
For test [8], the system named is Pseudomonas aeruginosa. The test can be described thus: Antimicrobial activity against Pseudomonas aeruginosa assessed as reduction in microbial growth. Format: functional, organism-based.
In test [9] the test system is Pseudomonas aeruginosa. The test can be described thus: Downregulation of rhlI mRNA expression in Pseudomonas aeruginosa PAO1 incubated for 4 hrs by RT-qPCR analysis. Format: functional, organism-based. The following applies: PAO1, 4 h.
The test system of test [10] is Pseudomonas aeruginosa. The test can be described thus: Anti-virulence activity against Pseudomonas aeruginosa assessed as reduction in pyocyanin production level at 100 uM incubated for 24 hrs by absorbance based assay relative to control. Format: functional. The arrangement: scale not given: the % may be the effect or the level left.
For test [11], the system named is Pseudomonas aeruginosa. The test can be described thus: Downregulation of lasB mRNA expression in Pseudomonas aeruginosa PAO1 incubated for 4 hrs by RT-qPCR analysis. Format: functional, organism-based. Particulars: PAO1, 4 h.
The test system of test [12] is Pseudomonas aeruginosa. The test can be described thus: Anti-virulence activity against Pseudomonas aeruginosa assessed as reduction in protease production level at 100 uM incubated for 24 hrs by absorbance based assay relative to control. Format: functional. More on the design: scale not given: the % may be the effect or the level left.
The test system of test [13] is Pseudomonas aeruginosa. The test is described as follows: Antivirulence activity against Pseudomonas aeruginosa assessed as reduction in elastase level at 100 uM incubated for 24 hrs by elastin-Congo red staining based analysis relative to control. More on the design: scale not given: the % may be the effect or the level left. Format: functional.
The subject of test [14] is Pseudomonas aeruginosa. The test can be described thus: Antibiofilm activity against Pseudomonas aeruginosa PAO1 assessed as inhibition of biofilm formation at 1 to 100 uM incubated for 24 hrs by crystal violet staining based assay relative to control. Format: functional. The arrangement: scale not given: the % may be the effect or the level left. Particulars: dose 1-100 µM.

Test [15] relates to Pseudomonas aeruginosa. The test is described as follows: Inhibition of rhamnolipid production in Pseudomonas aeruginosa PAO1 incubated for 24 hrs by spectrophotometric analysis. Format: functional, organism-based. Particulars: PAO1, 24 h.

Broadly, the IC50 is the midpoint of a concentration-inhibition curve.

Each structure is given as a SMILES string. Values after ≈ are worked out from the molar mass of the structure shown.

Take `CC(C)=CCC/C(C)=C/CC/C(C)=C/CO` [FARNESOL]: the results for the IC50 (in test [1]; in the test with Pseudomonas aeruginosa [2]) were 0.14 µg/mL (≈ 0.63 µM) and 1.11 µg/mL (≈ 4.99 µM), respectively.
Take `CCOP(=O)(NCCCCOc1cc(O)c2c(=O)cc(-c3ccccc3)oc2c1)OCC`: the IC50 in the test on Pseudomonas aeruginosa [3], in the test with Pseudomonas aeruginosa [4], with Pseudomonas aeruginosa [6], in the test on Pseudomonas aeruginosa [7], in the test on Pseudomonas aeruginosa [8] and with Pseudomonas aeruginosa [9] was 100 µM throughout. In addition, in the test with Pseudomonas aeruginosa [11], the IC50 was determined as 100 µM. The Activity in the test on Pseudomonas aeruginosa [5] is listed as 78%; in the test with Pseudomonas aeruginosa [10] it was 63.8%; with Pseudomonas aeruginosa [12], 18.8%; in the test on Pseudomonas aeruginosa [13], 42.2%.
For `O=C(/C=C/c1ccc(O)c(O)c1)c1ccc(O)cc1O` [BUTEIN], the Activity with Pseudomonas aeruginosa [14] is recorded as 72.45%. The compound also came in with an IC50 in the test with Pseudomonas aeruginosa [15] of 50 µM.
